What was measured:
[1] = system: female Sprague-Dawley white rats; experiment: Measurement of calcium excretion in urine (calcium/creatine of 24 h urine); type: in vivo; details: single treatment (calcitriol 0.1 μg/kg or alendronate 1.0 mg/kg), 2 months, FIG. 4
Protocol: (§1) Twelve week old matured female Sprague-Dawley white rats were supplied from Daehan Biolink Co., Ltd. (Seoul, Korea) and raised in a dean room of an animal experiment laboratory in a medical school of Seoul National University. The white rats were given a week to adapt by feeding them with normal feedstuff (Purina, chow diet) and then they were divided into 6 different groups wherein each group consisted of 10 white rats with similar weight distribution, and ovariostereses were performed to all of them. The white rats were allowed to freely drink water and have food under a standardized condition of 22° C., 50% humidity, 12 h dark/light cycle.
(§2) The amount of medication administered in each group is shown in the following table 1 and the control group was administered only with equal amount of palm oil and physiological saline used in the experimental groups.
(§3) After 2 months of the onset of the above medications, 24 h urine samples were collected from the white rats by using a metabolic cage, centrifuged and then stored at −70° C. The white rats under experiment were fasted overnight decapitated, and their blood samples were collected. White rats sera were then obtained by centrifuging those blood samples and were stored at −70° C. Tibiae were separated by ablation and fixed with 4% formalin at pH 7.4.

[2] = system: female Sprague-Dawley white rats; experiment: Bone remodeling index: serum osteocalcin and alkaline phosphatase; type: in vivo; details: single treatment (calcitriol 0.1 μg/kg or alendronate 1.0 mg/kg), 2 months; for concentration of serum osteocalcin: FIG. 5; for activity of alkaline phosphatase: FIG. 6
Protocol: as §1, §2, §3
The activity level of serum alkaline phosphatase was measured by using Technicon autoanalyzer and the concentration of osteocalcin was measured by using a kit (OSCA test, Brahams, Berlin, Germany) which uses RIA method.

[3] = system: female Sprague-Dawley white rats; experiment: Measurement of serum calcium concentration (Technicon autoanalyzer); details: single treatment (calcitriol 0.1 μg/kg or alendronate 1.0 mg/kg), 2 months, FIG. 3
Protocol: as §1, §2, §3

[4] = system: female Sprague-Dawley white rats; experiment: Bone histomorphometry: area of trabecular bone of tibia after ovariosteresis; type: in vivo; details: single treatment (calcitriol 0.1 μg/kg or alendronate 1.0 mg/kg), oral 5 days/week for 2 months after ovariosteresis; image analyzer, FIG. 2
Protocol: as §1, §2, §3

[5] = system: post-menopausal women; details: clinical study; cited from earlier work

Row | calcium excretion in urine (calcium/creatine, 24 h urine) [1] | serum calcium concentration [3] | Structure (SMILES) | concentration of serum osteocalcin [2] | activity of alkaline phosphatase [2] | area of trabecular bone [4] | reduction of rate of occurrence of new spinal fracture compared to placebo group [5]
1 | increased markedly | significant increase | C=C1/C(=C\C=C2/CCC[C@]3(C)[C@@H]([C@H](C)CCCC(C)(C)O)CC[C@@H]23)C[C@@H](O)C[C@@H]1O [calcitriol] | slight increase | slight increase | not increased | 
2 |  |  | NCCCC(O)(P(=O)(O)O)P(=O)(O)O [alendronate, 4-amino-hydroxybutylidine-1,1-bisphosphonate] | decreased | decreased | drastically increased | about 48%
